In patent publication US12624068B2, “Exon skipping by peptide nucleic acid derivatives” (OliPass Corporation, priority 2016, dated 2026):
{Fethoc} = N-terminal Fethoc capping group (publication's abbreviation); [C(1O2)] = modified PNA monomer acting as cytosine, C(pOq) type, 1O2; [A(5)] = modified PNA monomer acting as adenine, A(p) type, p=5; [A(6)] = modified PNA monomer acting as adenine, A(p) type, p=6; {NH2} = C-terminal non-substituted amino (amide) group

Assays:
HIF-1α protein = experiment: HIF-1α western blot in HeLa cells; type: cell-based, human; conditions: 24 hours
Procedure: “HIF-ASO 2” was evaluated for its ability to inhibit the expression of HIF-1α protein in HeLa cells as described below.
[Cell Culture & ASO Treatment] HeLa cells grown in 60 mm culture dish containing 5 mL culture medium were treated with “HIF-ASO 2” at 0 zM (negative control), 10 zM, 100 zM, 1 aM, or 10 aM.
[CoCl2 Treatment and Cell Lysis] 24 hours after the ASO treatment, the culture dishes except for the one without ASO treatment were treated with 200 μM CoCl2 for another 3 hours to upregulate the HIF-1α protein level by suppressing the activity of prolylhydroxylases (PHDs). Then the cells were washed 2× with 1 mL cold PBS, and subjected to lysis on ice with 200 μL 1×RIPA buffer (Cat. Number 9806, Cell Signaling Tech) supplemented with 1% SDS and 1× proteinase inhibitor cocktail (cOmplete Mini, Roche). Each lysate was collected in 1.5 mL e-tube, mixed with 100 μL 5× sample buffer, and boiled for 5 min at 100° C. The lysates were subjected to electrophoretic separation on an 8% SDS-PAGE gel, and transferred onto a 0.45 μm PVDF membrane. The membrane was probed with an anti-HIF-1α antibody (Cat. Number 610958, BD Biosciences) and an anti-β-actin antibody (Cat. Number sc4778, Santa Cruz).
FIG. 19B is a western blot data obtained with HeLa cells treated with “HIF-ASO 6” at 0 (negative control), 10, 100 or 1,000 zM for 24 hours. FIG. 19C provides the individual HIF-1α band intensities normalized against each individual β-actin band intensity by densitometry. The expression of HIF-1α protein decreased by ca 45-55% in the cells treated with “HIF-ASO 6”.
“HIF-ASO 1” was evaluated for its ability to inhibit the HIF-1α protein expression in HeLa cells according to the procedures described in “HIF-1α Example 2” unless noted otherwise. In this example, HeLa cells were treated with “HIF-ASO 1” at 0 zM (negative control), 100 zM, 300 zM, 1 aM, 3 aM, 10 aM, 30 aM, 100 aM or 300 aM for 72 hours prior to suppressing the activity of PHDs by an incubation with 200 μM CoCl2 for 3 hours. There were 4 culture dishes of the negative control, i.e., 0 zM “HIF-ASO 1”.
[ASO Treatment] […]

HIF-1α mRNA = experiment: HIF-1α nested qPCR by SYBR Green in HeLa cells; type: cell-based, human; conditions: 3 hours
Procedure: “HIF-ASO 2” was evaluated by nested qPCR for its ability to inhibit the expression of the full-length HIF-1α mRNA in HeLa cells as follows. [Cell Culture & ASO Treatment] HeLa cells grown in 60 mm culture dish containing 5 mL medium were treated with “ASO 2” at 0 (negative control), 10, 100 or 1,000 zM (2 culture dishes per each ASO concentration). [RNA Extraction] 3 hours after the ASO treatment, total RNA was extracted with “MiniBEST Universal RNA Extraction Kit” (Cat. Number 9767, Takara) according to the manufacturer's instructions. [cDNA Synthesis by One Step RT-PCR] […] NO: 37); HIF-exon 8_reverse: (5'→3') […] [Nested qPCR] […] NO: 39); HIF-exon 2n_reverse (5'→3') […] NO: 40); HIF-exon 3n_forward (5'→3') […] NO: 41); HIF-exon 3n_reverse (5'→3') […] NO: 42); HIF-exon 4n_forward (5'→3') […] NO: 43); HIF-exon 4n_reverse (5'→3') […] NO: 44); HIF-exon 5n_forward (5'→3') […] NO: 45); HIF-exon 5n_reverse (5'→3') […] NO: 46). […] “HIF-ASO 6” was evaluated for its ability to induce a change in HIF-1α mRNA in HeLa cells by nested qPCR according to the procedures in “HIF-1α Example 4” unless noted otherwise. [cDNA Synthesis by One Step RT-PCR] […] NO: 50); HIF-exon 8(2) reverse: (5'→3') […] “HIF-ASO 12” was evaluated by HIF-1α nested qPCR for its ability to induce a change in the HIF-1a mRNA in HeLa cells as described in “HIF-1a Example 3”, unless noted otherwise. HeLa cells were treated with “HIF-ASO 12” for 6 hours, and then subjected to total RNA extraction.

mdx mice = experiment: Histopathology by H&E staining of skeletal muscle in mdx mice; type: in vivo, mouse
Source text: [Histopathology by H&E Staining] Muscular inflammation and degeneration are the hallmark of DMD symptoms. Skeletal muscle samples were subjected to histopathology evaluation by H&E staining. FIG. 43 provides a representative set of H&E staining images for the triceps by group and sampling time point.

Substance	decrease of HIF-1α protein expression (western blot, normalized against β-actin) (HIF-1α protein; HeLa cells, 10, 100 or 1,000 zM)	decrease of individual HIF-1α exon levels (SYBR Green) (HIF-1α mRNA; HeLa cells, 10 zM) [%]	decrease of individual HIF-1α exon levels (SYBR Green) (HIF-1α mRNA; HeLa cells, 100 zM) [%]	decrease of individual HIF-1α exon levels (SYBR Green) (HIF-1α mRNA; HeLa cells, 1,000 zM (1 aM))	decrease of HIF-1α protein expression (western blot, normalized against β-actin) (HIF-1α protein; HeLa cells, 10 aM, then 200 μM CoCl2 3 hours) [%]	muscular degeneration and inflammation (H&E) (mdx mice; chronic 200 pmole/Kg)	severity of the histopathology findings (H&E) (mdx mice; chronic 10 and 50 pmole/Kg)
Fethoc-A(6)GA-A(6)CT-TA(6)T-CC(1O2)T-A(6)CT-TA(6)-NH2 (AGAACTTATCCTACTTA; splice-switching; all peptide nucleic acid (PNA), [A(6)] at 1, 4, 8, 13, 17, [C(1O2)] at 11, 5' {Fethoc}, 3' {NH2}; peptide nucleic acid backbone) [HIF-ASO 6]	45-55%	35	~30	~45%	–	–	–
Fethoc-GA(5)A-C(1O2)TT-A(5)TC-CTA(5)-C(1O2)T-NH2 (GAACTTATCCTACT; splice-switching; all peptide nucleic acid (PNA), [A(5)] at 2, 7, 12, [C(1O2)] at 4, 13, 5' {Fethoc}, 3' {NH2}; peptide nucleic acid backbone) [HIF-ASO 2]	–	–	–	not different from the exon levels in the cells without ASO treatment	~75	–	–
Fethoc-A(5)GA-G(6)CC(1O2)-TCA-A(5)AA(5)-T-NH2 (antisense AGAGCCTCAAAAT; Fethoc N-cap, C-terminal amide, chemistry not fully specified) [DMD-ASO 1]	–	–	–	–	–	reversed	weaker than the severity in the mdx negative control, but stronger than that in the 200 pmole/Kg group
